Values of other authors, collected in patent US8569304B2, “Active esters of N-substituted piperazine acetic acids, including isotopically enriched versions thereof” (DH Technologies Development Pte. Ltd., priority 2004, dated 2013).

Conditions: alcohol (leaving group) used to form the trifluoroacetate ester / active ester

pKa: 7.80
SMILES: O=C1CCC(=O)N1O [NHS, N-Hydroxysuccinimide]
